Results from US9056840B2, “Coelenterazine analogues and coelenteramide analogues” (JNC Corporation, priority 2010, dated 2015).

Experiments:
Type in all cases: physicochemical
apoaequorin [1] = molecular target: T1, apoaequorin (Aequorea victoria, UniProt P07164); test: Fluorescence spectra of semi-synthetic BFP (coelenteramide analogue + apoaequorin, CaCl2); conditions: 10 mM CaCl2 buffer, excitation 337 nm
T1 construct: purchased Chisso Corporation
Method: Semi-synthetic gFP was prepared from recombinant apoaequorin and coelenteramide analogues as follows. In 1 ml of 50 mM Tris-HC 1 (pH 7.6) containing 10 mM CaCl2 and 1 mM DTT, apoaequorin (0.2 mg) was mixed with 8 μl of a coelenteramide analogue (1 μg/μl in anhydrous methanol). The mixture was allowed to stand at 4° C. for 16 hours to prepare semi-synthetic BFP-like protein (hereinafter sometimes simply referred to as “semi-synthetic BFP”).
(§1) The fluorescence spectra were determined as follows. For coelenteramide analogue alone, the fluorescence was measured according to the procedures for semi-synthetic gFP and semi-synthetic BFP described in EXAMPLES 11 and 12, except for in the absence of apoaequorin, using 1 ml of 50 mM Tris-HCl (pH 7.6) containing 10 mM EDTA and 1 mM DTT or 1 ml of 50 mM Tris-HCl (pH 7.6) containing 10 mM CaCl2 and 1 mM DTT, in the final concentration of coelenteramide analogue adjusted to 8 μg/ml. The fluorescence spectra were measured at 25° C. in a quartz cell (10 mm light path length) using a Jasco FP-6500 spectrofluorometer (excitation wavelength: 337 nm, emission/excitation bandwidth: 3 nm; response: 0.5 sec, scan speed, 1000 nm/min).

[2] = Fluorescence spectra of coelenteramide analogue alone (absence of apoaequorin); conditions: analogue alone 8 μg/ml; for Coelenteramide (Buffer containing CaCl2) Fluorescence intensity (rlu) / Coelenteramide (Buffer containing CaCl2) Maximum fluorescence wavelength λmax (nm): 10 mM CaCl2 buffer pH 7.6, excitation 337 nm; for Coelenteramide (EDTA-containing buffer) Fluorescence intensity (rlu) / Coelenteramide (EDTA-containing buffer) Maximum fluorescence wavelength λmax (nm): 10 mM EDTA buffer pH 7.6, excitation 337 nm
Method: as §1

apoaequorin [3] = molecular target: T1, apoaequorin; test: Fluorescence spectra of semi-synthetic gFP (coelenteramide analogue + apoaequorin, EDTA); conditions: 10 mM EDTA buffer, excitation 337 nm
Method: Semi-synthetic gFP was prepared from recombinant apoaequorin and coelenteramide analogues as follows. In 1 ml of 50 mM Tris-HC 1 (pH 7.6) containing 10 mM EDTA and 1 mM DTT, apoaequorin (0.2 mg) was mixed with 8 μl of a coelenteramide analogue (1 μg/μl in anhydrous methanol). The mixture was allowed to stand 4° C. for 16 hours to prepare semi-synthetic gFP-like protein (hereinafter sometimes simply referred to as “semi-synthetic gFP”).
as §1

T1 sequence (P07164 other isoform, or with tags, fused parts or gaps with the stated changes): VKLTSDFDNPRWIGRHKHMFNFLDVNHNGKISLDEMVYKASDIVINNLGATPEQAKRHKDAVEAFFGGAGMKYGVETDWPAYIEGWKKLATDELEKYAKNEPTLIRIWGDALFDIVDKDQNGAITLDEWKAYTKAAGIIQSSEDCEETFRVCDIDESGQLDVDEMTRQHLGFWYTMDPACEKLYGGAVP

SMILES | Fluorescence intensity (apoaequorin [1]) | Semi-synthetic BFP (Buffer containing CaCl2) Maximum fluorescence wavelength λmax (nm) (apoaequorin [1]) | Coelenteramide (Buffer containing CaCl2) Fluorescence intensity (rlu) [2] | Coelenteramide (Buffer containing CaCl2) Maximum fluorescence wavelength λmax (nm) [2] | Coelenteramide (EDTA-containing buffer) Fluorescence intensity (rlu) [2] | Coelenteramide (EDTA-containing buffer) Maximum fluorescence wavelength λmax (nm) [2] | Semi-synthetic gFP (EDTA-containing buffer) Fluorescence intensity (rlu) (apoaequorin [3]) | Semi-synthetic gFP (EDTA-containing buffer) Maximum fluorescence wavelength λmax (nm) (apoaequorin [3])
O=C(Cc1ccc(O)cc1)Nc1ncc(-c2ccc(O)cc2)nc1-c1csc2ccccc12 [Compound 4i, N-[3-(Benzo[b]thiophen-3-yl)-5-(4-hydroxyphenyl)pyrazin-2-yl]-2-(4-hydroxyphenyl) acetamide] | 80.0 rlu | 494.0 nm | 11.8 rlu | 468.0 nm | 12.1 rlu | 471.5 nm | 106.5 rlu | 512.5 nm
O=C(Cc1ccc(O)cc1)Nc1ncc(-c2ccc(O)cc2)nc1-c1ccc(O)cc1 [Compound 4j, N-[3,5-Bis(4-hydroxyphenyl)pyrazin-2-yl]-2-(4-hydroxyphenyl)acetamide] | 100.5 rlu | 489.0 nm | 22.4 rlu | 481.0 nm | 22.5 rlu | 482.5 nm | 69.7 rlu | 492.5 nm
O=C(Cc1ccc(O)cc1)Nc1ncc(-c2ccc(O)cc2)nc1-c1cc2sccc2s1 [Compound 4k, 2-(4-Hydroxyphenyl)-N-[5-(4-hydroxyphenyl)-3-(thieno[3,2-b]thiophen-2-yl)pyrazin-2-yl]acetamide] | 148.2 rlu | 538.5 nm | 9.7 rlu | 491.0 nm | 10.3 rlu | 487.5 nm | 139.9 rlu | 532.0 nm
O=C(Cc1ccc(O)cc1)Nc1ncc(-c2ccc(O)cc2)nc1-c1cc2sc3ccsc3c2s1 [Compound 4l, 2-(4-Hydroxyphenyl)-N-[5-(4-hydroxyphenyl)-3-(thieno[3,2-b:2′,3′-d]thiophen-2-yl)pyrazin-2-yl]acetamide] | 63.5 rlu | 468.0 nm | 8.8 rlu | 523.0 nm | 9.3 rlu | 523.5 nm | 140.5 rlu | 524.5 nm
O=C(Cc1ccc(O)cc1)Nc1ncc(-c2ccc(O)cc2)nc1-c1ccc([N+](=O)[O-])cc1 [Compound 4o, 2-(4-Hydroxyphenyl)-N-[5-(4-hydroxyphenyl)-3-(4-nitrophenyl)pyrazin-2-yl]acetamide] | 3.9 rlu | 477.5 nm | 2.1 rlu | 478.5 nm | 2.1 rlu | 482.5 nm | 3.4 rlu | 485.0 nm
